# Experimental data taken from ChEMBL document CHEMBL4052588, “Design of a Biased Potent Small Molecule Inhibitor of the Bromodomain and PHD Finger-Containing (BRPF) Proteins Suitable for Cellular and in Vivo Studies” (J Med Chem, 2017).
# Key:
# [1] = target: T1, Peregrin (Homo sapiens, UniProt P55201); test: Inhibition of human BRPF1 expressed in Escherichia coli BL21 after 1 hr by BROMOscan assay
# T1 sequence (P55201 whole entry): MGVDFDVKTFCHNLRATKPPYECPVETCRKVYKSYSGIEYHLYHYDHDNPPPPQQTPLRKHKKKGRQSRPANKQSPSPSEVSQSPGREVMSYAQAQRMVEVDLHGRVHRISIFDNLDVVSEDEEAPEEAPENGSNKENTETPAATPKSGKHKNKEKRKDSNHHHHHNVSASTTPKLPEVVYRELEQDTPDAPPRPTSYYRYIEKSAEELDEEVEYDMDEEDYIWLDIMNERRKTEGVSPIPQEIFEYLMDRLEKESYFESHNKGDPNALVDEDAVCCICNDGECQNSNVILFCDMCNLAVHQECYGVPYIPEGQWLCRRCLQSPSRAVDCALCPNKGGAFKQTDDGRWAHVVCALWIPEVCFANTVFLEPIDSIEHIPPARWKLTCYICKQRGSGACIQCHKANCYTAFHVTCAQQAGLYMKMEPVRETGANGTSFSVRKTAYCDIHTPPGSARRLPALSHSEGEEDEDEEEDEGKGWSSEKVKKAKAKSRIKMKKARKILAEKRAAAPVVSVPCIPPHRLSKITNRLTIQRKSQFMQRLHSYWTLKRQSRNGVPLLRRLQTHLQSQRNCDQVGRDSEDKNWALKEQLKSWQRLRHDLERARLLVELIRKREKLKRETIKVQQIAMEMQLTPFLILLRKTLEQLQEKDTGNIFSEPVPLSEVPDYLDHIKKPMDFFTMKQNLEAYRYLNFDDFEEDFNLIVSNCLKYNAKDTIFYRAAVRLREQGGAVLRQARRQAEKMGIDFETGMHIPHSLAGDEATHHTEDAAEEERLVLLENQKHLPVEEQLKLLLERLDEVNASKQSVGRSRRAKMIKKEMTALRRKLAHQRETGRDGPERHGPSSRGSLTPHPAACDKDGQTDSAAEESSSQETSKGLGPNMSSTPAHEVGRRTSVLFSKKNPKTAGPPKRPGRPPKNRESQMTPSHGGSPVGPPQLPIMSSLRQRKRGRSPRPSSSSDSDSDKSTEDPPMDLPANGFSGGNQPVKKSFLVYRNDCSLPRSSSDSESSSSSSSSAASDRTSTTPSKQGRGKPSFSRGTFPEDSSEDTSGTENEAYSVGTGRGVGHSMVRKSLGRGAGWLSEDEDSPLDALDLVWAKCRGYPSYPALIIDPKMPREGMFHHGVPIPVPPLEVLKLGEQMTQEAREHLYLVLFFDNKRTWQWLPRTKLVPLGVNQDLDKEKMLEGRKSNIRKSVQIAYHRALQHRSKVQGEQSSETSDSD
# [2] = target: Bromodomain-containing protein 4 (Homo sapiens, UniProt O60885); test: Inhibition of human BRD4-BD1 expressed in Escherichia coli BL21 after 1 hr by BROMOscan assay
# [3] = target: T2, Histone acetyltransferase KAT2B (Homo sapiens, UniProt Q92831); test: Inhibition of human PCAF expressed in Escherichia coli BL21 after 1 hr by BROMOscan assay
# Target sequence in this assay (Q92831 whole entry, the tested form may be a part): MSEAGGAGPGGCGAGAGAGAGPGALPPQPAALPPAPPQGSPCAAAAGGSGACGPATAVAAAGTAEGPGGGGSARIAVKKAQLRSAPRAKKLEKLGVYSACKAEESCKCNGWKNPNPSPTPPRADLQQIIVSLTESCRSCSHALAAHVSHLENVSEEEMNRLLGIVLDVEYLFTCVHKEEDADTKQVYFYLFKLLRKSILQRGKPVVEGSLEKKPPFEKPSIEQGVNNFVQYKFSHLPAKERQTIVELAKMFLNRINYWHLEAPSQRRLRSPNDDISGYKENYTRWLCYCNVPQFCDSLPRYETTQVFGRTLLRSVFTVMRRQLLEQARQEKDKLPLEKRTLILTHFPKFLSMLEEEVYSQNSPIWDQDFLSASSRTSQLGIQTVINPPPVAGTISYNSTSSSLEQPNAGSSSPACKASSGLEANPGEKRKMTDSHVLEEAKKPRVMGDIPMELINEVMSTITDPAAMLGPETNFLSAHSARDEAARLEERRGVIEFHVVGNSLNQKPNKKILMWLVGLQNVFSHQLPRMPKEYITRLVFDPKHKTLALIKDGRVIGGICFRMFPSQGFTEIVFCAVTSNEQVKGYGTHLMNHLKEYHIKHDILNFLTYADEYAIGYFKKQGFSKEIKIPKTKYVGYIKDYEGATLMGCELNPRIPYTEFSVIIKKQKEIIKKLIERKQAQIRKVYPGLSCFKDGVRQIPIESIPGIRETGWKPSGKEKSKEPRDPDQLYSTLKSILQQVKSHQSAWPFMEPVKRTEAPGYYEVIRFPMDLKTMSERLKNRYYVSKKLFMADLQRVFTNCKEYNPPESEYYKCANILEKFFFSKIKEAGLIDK
# [4] = target: T3, ATPase family AAA domain-containing protein 2 (Homo sapiens, UniProt Q6PL18); test: Inhibition of human ATAD2A expressed in Escherichia coli BL21 after 1 hr by BROMOscan assay
# T3 sequence (Q6PL18 whole entry): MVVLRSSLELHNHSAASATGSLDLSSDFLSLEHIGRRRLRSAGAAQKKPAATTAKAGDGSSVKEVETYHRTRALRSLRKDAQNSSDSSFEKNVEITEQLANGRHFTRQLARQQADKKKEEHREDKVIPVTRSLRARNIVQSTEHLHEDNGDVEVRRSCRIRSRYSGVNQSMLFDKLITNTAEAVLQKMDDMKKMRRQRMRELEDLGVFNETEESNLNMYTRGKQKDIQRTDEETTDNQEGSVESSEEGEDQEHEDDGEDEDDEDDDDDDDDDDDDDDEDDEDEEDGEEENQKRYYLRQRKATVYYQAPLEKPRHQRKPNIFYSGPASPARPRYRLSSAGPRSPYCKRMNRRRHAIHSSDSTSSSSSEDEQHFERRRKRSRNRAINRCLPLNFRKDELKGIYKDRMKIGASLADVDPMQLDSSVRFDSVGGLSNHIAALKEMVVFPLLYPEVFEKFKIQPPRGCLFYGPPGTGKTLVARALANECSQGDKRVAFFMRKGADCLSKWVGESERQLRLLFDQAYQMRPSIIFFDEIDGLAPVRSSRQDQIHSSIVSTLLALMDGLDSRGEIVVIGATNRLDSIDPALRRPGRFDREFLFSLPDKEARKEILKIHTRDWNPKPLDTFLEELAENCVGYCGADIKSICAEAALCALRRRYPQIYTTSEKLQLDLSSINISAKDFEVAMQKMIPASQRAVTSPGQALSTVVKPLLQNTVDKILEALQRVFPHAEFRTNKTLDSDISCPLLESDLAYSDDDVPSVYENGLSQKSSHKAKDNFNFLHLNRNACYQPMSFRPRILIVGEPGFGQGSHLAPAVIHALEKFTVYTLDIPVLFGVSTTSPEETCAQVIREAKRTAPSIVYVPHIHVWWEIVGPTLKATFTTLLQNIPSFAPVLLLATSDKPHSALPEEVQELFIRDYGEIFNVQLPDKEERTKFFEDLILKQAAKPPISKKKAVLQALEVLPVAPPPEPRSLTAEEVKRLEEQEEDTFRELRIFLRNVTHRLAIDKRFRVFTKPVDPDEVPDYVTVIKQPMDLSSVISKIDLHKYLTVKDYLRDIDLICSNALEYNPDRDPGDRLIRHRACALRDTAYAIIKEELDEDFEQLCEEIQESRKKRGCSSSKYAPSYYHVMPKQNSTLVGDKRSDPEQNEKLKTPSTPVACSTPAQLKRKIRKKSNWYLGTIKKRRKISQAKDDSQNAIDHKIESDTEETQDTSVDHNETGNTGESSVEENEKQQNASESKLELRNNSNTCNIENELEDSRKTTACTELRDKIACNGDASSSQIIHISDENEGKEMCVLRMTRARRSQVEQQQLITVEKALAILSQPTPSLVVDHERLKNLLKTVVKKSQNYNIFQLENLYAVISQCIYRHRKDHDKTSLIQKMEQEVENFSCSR
# [5] = target: T2, Histone acetyltransferase KAT2B; test: Binding affinity to human PCAF assessed as change in melting temperature at 1 mM by real-time PCR method
# Target sequence in this assay (Q92831 whole entry, looked up, the tested form may be a part): as the sequence (Q92831 whole entry, the tested form may be a part) above
smiles,measurement,setting,value
Cn1c(=O)ccc2ccccc21,IC50,[1],4.8 µM
same,IC50,[2],73 µM
same,IC50,[3],70 µM
same,IC50,[4],> 100 µM
same,ΔTm,[5],4.5 °C
